Assay results from ChEMBL document CHEMBL4627407, “Identification of a Potent Oridonin Analogue for Treatment of Triple-Negative Breast Cancer” (J Med Chem, 2020).

What was measured:
Format in all cases: functional, cell-based
DU-4475 = experiment: Antiproliferative activity against human DU4475 cells after 72 hrs by MTT assay; conditions: DU-4475, 72 h
HCC1806 = experiment: Antiproliferative activity against human HCC1806 cells after 72 hrs by MTT assay; conditions: HCC1806, 72 h
MDA-MB-468 = experiment: Antiproliferative activity against human MDA-MB-468 cells after 72 hrs by MTT assay; conditions: MDA-MB-468, 72 h
MDA-MB-231 = experiment: Antiproliferative activity against human MDA-MB-231 cells after 72 hrs by MTT assay; conditions: MDA-MB-231, 72 h

SMILES	IC50 (DU-4475) [nM]	IC50 (HCC1806) [nM]	IC50 (MDA-MB-468) [nM]	IC50 (MDA-MB-231) [nM]
C=C1C(=O)[C@@]23C(=O)[C@@H]4OC[C@]5(C=CCC(C)(C)[C@@H]45)[C@@H]2CC[C@@H]1[C@H]3OC(=O)c1ccc(OC)cc1	1890	1710	2020	1300
C=C1C(=O)[C@@]23C(=O)C[C@@H]4C(C)(C)CCC[C@@]4(COC(C)=O)[C@@H]2CC[C@@H]1[C@H]3OC(C)=O	1810	2870	2490	3660
C=C1C(=O)[C@@]23C(=O)[C@@H]4OC[C@]5(C=CCC(C)(C)[C@@H]45)[C@@H]2CC[C@@H]1[C@H]3OC(=O)c1ccncn1	850	740	850	640
C=C1C(=O)[C@@]23C(=O)[C@@H]4OC[C@]5(C=CCC(C)(C)[C@@H]45)[C@@H]2CC[C@@H]1[C@H]3OC(=O)CCc1ccccc1	1740	1620	1940	1420
C=C1C(=O)[C@@]23C(=O)[C@@H]4OC[C@]5(C=CCC(C)(C)[C@@H]45)[C@@H]2CC[C@@H]1[C@H]3OC(=O)c1ccc(S(C)(=O)=O)cc1	1280	1170	1380	1130
C=C1C(=O)[C@@]23C(=O)[C@@H]4OC[C@]5(C=CCC(C)(C)[C@@H]45)[C@@H]2CC[C@@H]1[C@H]3O	920	970	990	1300
C=C1C(=O)[C@@]23C(=O)[C@@H]4OC[C@]5(C=CCC(C)(C)[C@@H]45)[C@@H]2CC[C@@H]1[C@H]3OC(=O)/C=C/c1ccccc1	1640	1550	1630	1370
C=C1C(=O)[C@@]23C(=O)[C@@H]4OC[C@]5(C=CCC(C)(C)[C@@H]45)[C@@H]2CC[C@@H]1[C@H]3OC(=O)/C=C/c1ccc(OC)cc1	2320	1960	2290	1310
C=C1C(=O)[C@@]23C(=O)[C@@H]4OC[C@]5(C=CCC(C)(C)[C@@H]45)[C@@H]2CC[C@@H]1[C@H]3OC(=O)C1CCCCC1	2140	2580	2400	1600
C=C1C(=O)[C@@]23C(=O)[C@@H]4OC[C@]5(CCCC(C)(C)[C@@H]45)[C@@H]2CC[C@@H]1[C@H]3O	1560	2050	2290	1740
C=C1C(=O)[C@@]23C(=O)[C@@H]4OC[C@]5(C=CCC(C)(C)[C@@H]45)[C@@H]2CC[C@@H]1[C@H]3OC(=O)/C=C/c1ccc2ccccc2c1	2000	1780	2250	1470
C=C1C(=O)[C@@]23C(=O)[C@@H]4OC[C@]5(C=CCC(C)(C)[C@@H]45)[C@@H]2CC[C@@H]1[C@H]3OC(=O)/C=C/c1ccncc1F	1100	1140	1040	850
C=C1C(=O)[C@@]23C(=O)[C@@H]4OC[C@]5(C=CCC(C)(C)[C@@H]45)[C@@H]2CC[C@@H]1[C@H]3OC(=O)/C=C/c1ccc(F)cc1	1750	1630	1600	1180
C=C1C(=O)[C@@]23C(=O)[C@@H]4OC[C@]5(C=CCC(C)(C)[C@@H]45)[C@@H]2CC[C@@H]1[C@H]3OC(=O)c1cccnc1	2620	2730	1370	1070
C=C1C(=O)[C@@]23C(=O)[C@@H]4OC[C@]5(C=CCC(C)(C)[C@@H]45)[C@@H]2CC[C@@H]1[C@H]3OC(=O)/C=C/c1ccccn1	470	600	1080	1450
